Measurements published in patent US20140179664A1, “Heterocyclyl Pyrimidine Analogues As JAK Inhibitors” (Cellzome Limited, priority 2011, published 2014).

Legend:
Type in all cases: binding
[1] = target: T1, JAK2 (Homo sapiens, UniProt O60674); assay: Kinobeads assay, JAK2; conditions: mixed Molt4/Ramos lysate, read-out: Inhibition values (IC50) JAK2
T1 construct: endogenous in cells; host or cells: Molt4 (ATCC CRL-1582) and Ramos (ATCC CRL-1596), mixed lysate 1:2
Procedure: (§1) The compounds of the present invention as described in the previous examples were tested in a Kinobeads™ assay as described for ZAP-70 (WO-A 2007/137867). Briefly, test compounds (at various concentrations) and the affinity matrix with the immobilized aminopyrido-pyrimidine ligand 24 were added to cell lysate aliquots and allowed to bind to the proteins in the lysate sample. After the incubation time the beads with captured proteins were separated from the lysate. Bound proteins were then eluted and the presence of JAK1, JAK2, JAK3 and TYK2 was detected and quantified using specific antibodies in a dot blot procedure and the Odyssey infrared detection system. Dose response curves for individual kinases were generated and IC50 values calculated. Kinobeads™ assays for ZAP-70 (WO-A 2007/137867) and for kinase selectivity profiling (WO-A 2006/134056) have been previously described.
(§2) The affinity matrix was washed two times with 15 mL of lx DP buffer containing 0.2% NP40 (IGEPAL® CA-630, Sigma, #13021) and then resuspended in 1×DP buffer containing 0.2% NP40 (3% beads slurry).
(§3) 5×DP buffer: 250 mM Tris-HCl pH 7.4, 25% Glycerol, 7.5 mM MgCl2, 750 mM NaCl, 5 mM Na3VO4; filter the 5×DP buffer through a 0.22 μm filter and store in aliquots at −80° C. The 5×DP buffer is diluted with H2O to 1×DP buffer containing 1 mM DTT and 25 mM NaF.
(§4) Stock solutions of test compounds were prepared in DMSO. In a 96 well plate […] solution of diluted test compounds at 5 mM in DMSO were prepared. Starting with this solution a 1:3 dilution series (9 steps) was prepared. For control experiments (no test compound) a buffer containing 2% DMSO was used.
(§5) Molt4 cells (ATCC catalogue number CRL-1582) and Ramos cells (ATCC catalogue number CRL-1596) were grown in 1 L Spinner flasks (Integra Biosciences, #182101) in suspension in RPMI 1640 medium (Invitrogen, #21875-034) supplemented with 10% Fetal Bovine Serum (Invitrogen) at a density between 0.15×10^6 and 1.2×10^6 cells/mL. Cells were harvested by centrifugation, washed once with 1×PBS buffer (Invitrogen, #14190-094) and cell pellets were frozen in liquid nitrogen and subsequently stored at −80° C. Cells were homogenized in a Potter S homogenizer in lysis buffer: 50 mM Tris-HCl, 0.8% NP40, 5% glycerol, 150 mM NaCl, 1.5 mM MgCl2, 25 mM NaF, 1 mM sodium vanadate, 1 mM DTT, pH 7.5. One complete EDTA-free tablet (protease inhibitor cocktail, Roche Diagnostics, 1873580) per 25 mL buffer was added. The material was dounced 10 times using a mechanized POTTER S, transferred to 50 mL falcon tubes, incubated for 30 minutes on ice and spun down for 10 minutes at 20,000 g at 4° C. (10,000 rpm in Sorvall SLA600, precooled). The supernatant was transferred to an ultracentrifuge (UZ)-polycarbonate tube (Beckmann, 355654) and spun for 1 hour at 100.000 g at 4° C. (33.500 rpm in Ti50.2, precooled). The supernatant was transferred again to a fresh 50 mL falcon tube, the protein concentration was determined by a Bradford assay (BioRad) and samples containing 50 mg of protein per aliquot were prepared. The samples were immediately used for experiments or frozen in liquid nitrogen and stored frozen at −80° C.
(§6) Cell lysate (approximately 50 mg protein per plate) was thawed in a water bath at room temperature and then stored on ice. To the thawed cell lysate 1×DP 0.8% NP40 buffer containing protease inhibitors (1 tablet for 25 mL buffer; EDTA-free protease inhibitor cocktail; Roche Diagnostics 1873580) was added in order to reach a final protein concentration of 10 mg/mL total protein. The diluted cell lysate was stored on ice. Mixed Molt4/Ramos lysate was prepared by combining one volume of Molt4 lysate and two volumes of Ramos lysate (ratio 1:2).
(§7) To a 96 well filter plate (Multiscreen HTS, BV Filter Plates, Millipore #MSBVN1250) were added per well: 100 μL affinity matrix (3% beads slurry), […], of compound solution, and 50 μL of diluted lysate. […]

[2] = target: T2, TYK2 (Homo sapiens, UniProt P29597); assay: Kinobeads assay, TYK2; conditions: mixed Molt4/Ramos lysate, read-out: Inhibition values (IC50) TYK2
T2 construct: endogenous in cells; host or cells: Molt4 (ATCC CRL-1582) and Ramos (ATCC CRL-1596), mixed lysate 1:2
Procedure: as §1, §2, §3, §4, §5, §6, §7

[3] = target: T3, JAK1 (Homo sapiens, UniProt P23458); assay: Kinobeads assay, JAK1; conditions: mixed Molt4/Ramos lysate, read-out: Inhibition values (IC50) JAK1
T3 construct: endogenous in cells; host or cells: Molt4 (ATCC CRL-1582) and Ramos (ATCC CRL-1596), mixed lysate 1:2
Procedure: After the incubation time the beads with captured proteins were separated from the lysate. Bound proteins were then eluted and the presence of JAK1, JAK2, JAK3 and TYK2 was detected and quantified using specific antibodies in a dot blot procedure and the Odyssey infrared detection system. Dose response curves for individual kinases were generated and IC50 values calculated.
as §3
Stock solutions of test compounds were prepared in DMSO. […] Starting with this solution a 1:3 dilution series (9 steps) was prepared. For control experiments (no test compound) a buffer containing 2% DMSO was used.
Cells were homogenized in a Potter S homogenizer in lysis buffer: 50 mM Tris-HCl, 0.8% NP40, 5% glycerol, 150 mM NaCl, 1.5 mM MgCl2, 25 mM NaF, 1 mM sodium vanadate, 1 mM DTT, pH 7.5. […] The material was dounced 10 times using a mechanized POTTER S, transferred to 50 mL falcon tubes, incubated for 30 minutes on ice and spun down for 10 minutes at 20,000 g at 4° C. (10,000 rpm in Sorvall SLA600, precooled). […] (33.500 rpm in Ti50.2, precooled). The supernatant was transferred again to a fresh 50 mL falcon tube, the protein concentration was determined by a Bradford assay (BioRad) and samples containing 50 mg of protein per aliquot were prepared. The samples were immediately used for experiments or frozen in liquid nitrogen and stored frozen at −80° C.
Cell lysate (approximately 50 mg protein per plate) was thawed in a water bath at room temperature and then stored on ice. […] The diluted cell lysate was stored on ice. Mixed Molt4/Ramos lysate was prepared by combining one volume of Molt4 lysate and two volumes of Ramos lysate (ratio 1:2).
Plates were sealed and incubated for 3 hours in a cold room on a plate shaker (Heidolph tiramax 1000) at 750 rpm. Afterwards the plate was washed 3 times with 230 μL washing buffer (1×DP 0.4% NP40). […] The eluate was frozen quickly at −80° C. and stored at −20° C.
Afterwards the membrane was washed twice for 10 minutes with PBS buffer containing 0.2% Tween 20 at room temperature. […] Afterwards the membrane was washed twice for 10 minutes each with 1×PBS buffer containing 0.2% Tween 20 at room temperature. Then the membrane was rinsed once with PBS buffer to remove residual Tween 20. The membrane was kept in PBS buffer at 4° C. and then scanned with the Odyssey instrument. Fluorescence signals were recorded and analysed according to the instructions of the manufacturer.

T3 sequence (P23458 whole entry): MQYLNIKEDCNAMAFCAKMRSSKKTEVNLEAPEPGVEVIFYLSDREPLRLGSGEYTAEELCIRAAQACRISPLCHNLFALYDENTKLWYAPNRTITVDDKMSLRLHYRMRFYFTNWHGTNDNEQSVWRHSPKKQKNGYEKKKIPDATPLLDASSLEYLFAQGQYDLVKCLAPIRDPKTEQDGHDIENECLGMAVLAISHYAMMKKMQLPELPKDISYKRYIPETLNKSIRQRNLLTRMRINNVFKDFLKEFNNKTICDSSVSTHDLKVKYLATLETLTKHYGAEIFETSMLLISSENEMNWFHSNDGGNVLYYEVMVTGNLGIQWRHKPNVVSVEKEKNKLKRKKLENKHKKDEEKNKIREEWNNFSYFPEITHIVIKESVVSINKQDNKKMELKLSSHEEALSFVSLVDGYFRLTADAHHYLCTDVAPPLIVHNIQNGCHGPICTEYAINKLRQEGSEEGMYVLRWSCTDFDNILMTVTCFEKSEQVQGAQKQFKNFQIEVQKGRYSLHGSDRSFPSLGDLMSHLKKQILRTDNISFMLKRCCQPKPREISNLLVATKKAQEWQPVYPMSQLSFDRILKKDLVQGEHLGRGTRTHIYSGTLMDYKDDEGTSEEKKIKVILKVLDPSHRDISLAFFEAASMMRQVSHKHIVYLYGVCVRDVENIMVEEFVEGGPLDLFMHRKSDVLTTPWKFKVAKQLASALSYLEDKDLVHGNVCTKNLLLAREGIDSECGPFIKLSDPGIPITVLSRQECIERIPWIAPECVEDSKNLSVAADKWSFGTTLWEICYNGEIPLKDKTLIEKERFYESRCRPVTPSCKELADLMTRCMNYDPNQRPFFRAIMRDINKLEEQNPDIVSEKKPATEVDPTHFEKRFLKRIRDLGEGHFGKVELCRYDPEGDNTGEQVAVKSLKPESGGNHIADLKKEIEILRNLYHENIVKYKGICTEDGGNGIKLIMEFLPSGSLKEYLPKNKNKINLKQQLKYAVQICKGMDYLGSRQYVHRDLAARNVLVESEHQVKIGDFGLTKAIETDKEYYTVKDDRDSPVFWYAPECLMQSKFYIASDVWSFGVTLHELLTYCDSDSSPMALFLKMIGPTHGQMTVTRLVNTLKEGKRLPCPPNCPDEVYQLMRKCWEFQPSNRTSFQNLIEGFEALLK
T2 sequence (P29597 whole entry): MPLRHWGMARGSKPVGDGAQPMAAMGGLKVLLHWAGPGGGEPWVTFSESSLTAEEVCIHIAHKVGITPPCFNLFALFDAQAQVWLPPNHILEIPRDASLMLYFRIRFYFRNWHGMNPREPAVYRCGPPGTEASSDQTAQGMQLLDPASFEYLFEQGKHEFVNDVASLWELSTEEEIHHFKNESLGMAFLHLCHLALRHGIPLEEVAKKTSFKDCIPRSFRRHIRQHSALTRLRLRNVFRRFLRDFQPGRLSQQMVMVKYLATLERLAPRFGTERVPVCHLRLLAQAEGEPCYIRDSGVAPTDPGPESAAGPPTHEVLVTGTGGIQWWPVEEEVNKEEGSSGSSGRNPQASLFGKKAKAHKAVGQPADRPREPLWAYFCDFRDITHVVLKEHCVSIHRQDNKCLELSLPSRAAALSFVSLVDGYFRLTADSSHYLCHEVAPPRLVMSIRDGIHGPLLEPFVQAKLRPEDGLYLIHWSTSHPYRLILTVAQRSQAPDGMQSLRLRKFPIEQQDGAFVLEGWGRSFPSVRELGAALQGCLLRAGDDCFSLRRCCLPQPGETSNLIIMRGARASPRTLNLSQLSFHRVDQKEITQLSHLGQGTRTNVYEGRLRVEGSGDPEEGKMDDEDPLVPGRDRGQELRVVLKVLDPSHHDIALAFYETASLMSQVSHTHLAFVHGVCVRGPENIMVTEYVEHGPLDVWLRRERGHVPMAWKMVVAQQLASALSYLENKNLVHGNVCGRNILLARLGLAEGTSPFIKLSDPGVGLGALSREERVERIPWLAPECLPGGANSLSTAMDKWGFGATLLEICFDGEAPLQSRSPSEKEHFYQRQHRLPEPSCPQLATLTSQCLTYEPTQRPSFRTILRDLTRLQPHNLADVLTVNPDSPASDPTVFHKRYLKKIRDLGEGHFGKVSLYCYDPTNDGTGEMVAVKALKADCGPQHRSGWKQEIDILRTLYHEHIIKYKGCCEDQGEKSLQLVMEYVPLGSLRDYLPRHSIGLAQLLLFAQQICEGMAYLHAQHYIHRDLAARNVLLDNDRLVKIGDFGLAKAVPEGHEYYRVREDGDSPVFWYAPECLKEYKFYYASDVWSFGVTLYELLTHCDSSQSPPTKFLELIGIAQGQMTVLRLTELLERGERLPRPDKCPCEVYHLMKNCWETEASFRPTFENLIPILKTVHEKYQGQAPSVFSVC
T1 sequence (O60674 whole entry): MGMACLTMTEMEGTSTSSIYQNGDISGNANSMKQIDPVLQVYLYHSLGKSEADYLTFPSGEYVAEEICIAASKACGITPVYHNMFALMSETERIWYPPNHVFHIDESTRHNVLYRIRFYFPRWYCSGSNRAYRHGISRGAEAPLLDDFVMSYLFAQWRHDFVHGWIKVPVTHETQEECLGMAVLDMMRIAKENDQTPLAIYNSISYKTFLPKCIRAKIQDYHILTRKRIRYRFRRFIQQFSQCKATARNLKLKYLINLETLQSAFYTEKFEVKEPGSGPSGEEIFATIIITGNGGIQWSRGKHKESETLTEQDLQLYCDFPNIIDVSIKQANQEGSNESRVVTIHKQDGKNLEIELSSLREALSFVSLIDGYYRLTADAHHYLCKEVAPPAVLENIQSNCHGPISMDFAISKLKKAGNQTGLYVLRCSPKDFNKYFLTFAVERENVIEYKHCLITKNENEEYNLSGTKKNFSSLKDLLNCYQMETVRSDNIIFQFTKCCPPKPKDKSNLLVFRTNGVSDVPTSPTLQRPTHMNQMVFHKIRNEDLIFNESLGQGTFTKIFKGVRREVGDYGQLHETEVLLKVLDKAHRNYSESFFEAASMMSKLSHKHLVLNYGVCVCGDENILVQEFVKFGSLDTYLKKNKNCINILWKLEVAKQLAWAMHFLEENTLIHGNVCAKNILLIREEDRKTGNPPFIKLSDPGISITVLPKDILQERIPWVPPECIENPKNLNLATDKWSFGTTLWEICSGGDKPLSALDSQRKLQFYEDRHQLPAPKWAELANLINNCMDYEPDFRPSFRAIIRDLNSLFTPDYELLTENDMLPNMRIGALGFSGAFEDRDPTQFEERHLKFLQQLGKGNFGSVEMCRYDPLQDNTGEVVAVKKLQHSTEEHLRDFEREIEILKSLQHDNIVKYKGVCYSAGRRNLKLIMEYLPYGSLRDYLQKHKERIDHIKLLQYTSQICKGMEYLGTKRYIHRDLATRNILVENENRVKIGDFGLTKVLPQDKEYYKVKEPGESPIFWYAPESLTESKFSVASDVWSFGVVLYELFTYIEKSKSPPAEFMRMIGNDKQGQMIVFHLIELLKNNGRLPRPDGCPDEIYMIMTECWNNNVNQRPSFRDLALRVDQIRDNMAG

IC50 [1] [nM]	IC50 [2] [nM]	IC50 [3] [nM]	Structure (SMILES)
≥ 10000	1000 to 10000	1000 to 10000	Cn1cc(Nc2ncc(Cl)c(N[C@H](CO)c3cccc(N4CCOCC4=O)c3)n2)cn1 [Compound 138]
1000 to 10000	1000 to 10000	100 to 1000	Cn1cc(-c2cc(F)cc([C@@H](CO)Nc3nc(Nc4cnn(CCO)c4)ncc3Cl)c2)cn1 [Compound 152]
100 to 1000	1000 to 10000	100 to 1000	Cn1cc(Nc2ncc(Cl)c(N[C@H](CO)c3cc(F)cc(F)c3)n2)cn1 [Compound 142]
100 to 1000	100 to 1000	< 100	OCCn1cc(Nc2ncc(Cl)c(N[C@H](CO)c3cc(F)cc(F)c3)n2)cn1 [Compound 143]
1000 to 10000	1000 to 10000	1000 to 10000	Cn1cc(Nc2ncc(F)c(N[C@H](CO)c3cc(F)cc(F)c3)n2)cn1 [Compound 158]
≥ 10000	≥ 10000	1000 to 10000	Cn1cc(-c2cccc([C@@H](CO)Nc3nc(Nc4cnn(CCO)c4)ncc3Cl)c2)cn1 [Compound 151]
100 to 1000	100 to 1000	100 to 1000	OCCn1cc(Nc2ncc(Cl)c(NC(CO)c3cc(F)cc(F)c3)n2)cn1 (stereo not drawn) [Compound 122]
≥ 10000	≥ 10000	1000 to 10000	Cn1cc(-c2cc(F)cc([C@@H](CO)Nc3nc(Nc4cnn(CCO)c4)ncc3F)c2)cn1 [Compound 153]
100 to 1000	100 to 1000	< 100	CNC(=O)Cn1cc(Nc2ncc(Cl)c(N[C@H](CO)c3cc(F)cc(F)c3)n2)cn1 [Compound 145]
≥ 10000	100 to 1000	100 to 1000	COc1cccc([C@@H](CO)Nc2nc(Nc3cnn(CC(=O)N4CCOCC4)c3)ncc2Cl)c1 [Compound 102]
100 to 1000	1000 to 10000	100 to 1000	CCn1cc(Nc2ncc(Cl)c(N[C@H](CO)c3ccccc3OC)n2)cn1 [Compound 95]
1000 to 10000	100 to 1000	1000 to 10000	CNC(=O)Cn1cc(Nc2ncc(Cl)c(N[C@H](CO)c3cccc(-c4cnn(C)c4)c3)n2)cn1 [Compound 154]
100 to 1000	100 to 1000	< 100	CNC(=O)Cn1cc(Nc2ncc(Cl)c(N[C@H](CO)c3cc(F)ccc3F)n2)cn1 [Compound 141]
≥ 10000	≥ 10000	> 10000	Cc1cnc(Nc2cnn(C)c2)nc1N[C@H](CO)c1cccc(-c2cnn(C)c2)c1 [Compound 149]
1000 to 10000	1000 to 10000	100 to 1000	Cc1cnc(Nc2cnn(C)c2)nc1N[C@H](CO)c1cc(F)cc(F)c1 [Compound 164]
1000 to 10000	100 to 1000	100 to 1000	O=C(Cn1cc(Nc2ncc(Cl)c(N[C@H](CO)c3ccccc3F)n2)cn1)N1CCOCC1 [Compound 103]

IC50 [1] [nM]	IC50 [2] [nM]	IC50 [3] [nM]	Structure (SMILES)
1000 to 10000	1000 to 10000	100 to 1000	CNC(=O)Cn1cc(Nc2ncc(Cl)c(N[C@H](CO)c3ccccc3F)n2)cn1 [Compound 100]
1000 to 10000	≥ 10000	1000 to 10000	CNC(=O)Cn1cc(Nc2ncc(Cl)c(N[C@H](CO)c3cc(F)cc(-c4cnn(C)c4)c3)n2)cn1 [Compound 156]
≥ 10000	1000 to 10000	1000 to 10000	OCCn1cc(Nc2ncc(F)c(N[C@H](CO)c3ccccc3)n2)cn1 [Compound 10]
1000 to 10000	1000 to 10000	1000 to 10000	CNC(=O)Cn1cc(Nc2ncc(C)c(N[C@H](CO)c3ccccc3)n2)cn1 [Compound 133]
1000 to 10000	1000 to 10000	100 to 1000	CN1CCC(n2cc(Nc3ncc(Cl)c(N[C@H](CO)c4ccccc4)n3)cn2)C1=O (stereo partly drawn) [Compound 135]
1000 to 10000	100 to 1000	100 to 1000	OCCn1cc(Nc2ncc(F)c(N[C@H](CO)c3cc(F)cc(F)c3)n2)cn1 [Compound 159]
1000 to 10000	≥ 10000	1000 to 10000	CC[C@@H](Nc1nc(Nc2cnn(C)c2)ncc1Cl)c1ccccc1 [Compound 5]
1000 to 10000	100 to 1000	100 to 1000	C[C@@H](CO)NC(=O)Cn1cc(Nc2ncc(Cl)c(N[C@H](CO)c3ccccc3F)n2)cn1 [Compound 116]
1000 to 10000	1000 to 10000	1000 to 10000	NCCCn1cc(Nc2ncc(Cl)c(N[C@H](CO)c3ccccc3)n2)cn1 [Compound 113]
1000 to 10000	1000 to 10000	100 to 1000	OC[C@@H](Nc1nc(Nc2cnn(CC(F)F)c2)ncc1Cl)c1ccccc1F [Compound 165]
100 to 1000	100 to 1000	< 100	CNC(=O)Cn1cc(Nc2ncc(Cl)c(NC(CO)c3cc(F)ccc3F)n2)cn1 (stereo not drawn) [Compound 130]
≥ 10000	≥ 10000	> 10000	Cn1cc(Nc2ncc(Cl)c(N[C@H](CO)c3cccc(-c4cnn(C)c4)c3)n2)cn1 [Compound 136]
1000 to 10000	100 to 1000	100 to 1000	CNC(=O)Cn1cc(Nc2ncc(Cl)c(N[C@H](CO)c3ccccc3OC)n2)cn1 [Compound 98]
1000 to 10000	< 100	100 to 1000	COc1ccccc1[C@@H](CO)Nc1nc(Nc2cnn(CC(=O)N3CCOCC3)c2)ncc1Cl [Compound 101]
1000 to 10000	1000 to 10000	100 to 1000	Cn1cc(Nc2ncc(Cl)c(NC(CO)c3cc(F)cc(F)c3)n2)cn1 (stereo not drawn) [Compound 121]
